Active and inactive are the calls of the source. The rule behind the calls is not given here.

The data set has as its system rodent carcinogenicity bioassays, tumor incidence. Nature of the data set: CCRIS carcinogenicity studies. In a few lines:
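Archive of carcinogenicity, mutagenicity, tumor promotion and tumor inhibition results drawn from journals, NCI reports and other sources, expert-reviewed; covers 1985-2011 and is no longer updated.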

In the case of `COc1nc(C)nc(NC(=O)NS(=O)(=O)c2ccccc2Cl)n1`, the carcinogen call by setting is: (Species: Rat, Strain/Sex: CD/Female (50/group), Route: Oral, Dose: 0, 100, 500, 2,500 ppm in diet for 2 yr, Dose: 0, 100, 500, 2,500 ppm in diet for 2 yr) “inactive; negative (study details not given in source; purity 92-95%)”; (Species: Rat, Strain/Sex: CD/Male (50/group), Route: Oral, Dose: 0, 100, 500, 2,500 ppm in diet for 2 yr, Dose: 0, 100, 500, 2,500 ppm in diet for 2 yr) “inactive; negative (study details not given in source; purity 92-95%)”.
On to `C1=Cc2cc3ccccc3c3cccc1c23`, for which the carcinogen call reads like this: (Species: MOUSE, Strain/Sex: BLU:HA/FEMALE, Route: INTRAPERITONEAL, Dose: 0, 175, 437.5 UG/KG/D ON DAYS 1 (1/7 TOTAL DOSE), 8 (2/7 TOTAL DOSE), AND 15 (4/7 TOTAL DOSE) AFTER BIRTH (STUDY DURATIO, Dose: 0, 175, 437.5 UG/KG/D ON DAYS 1 (1/7 TOTAL DOSE), 8 (2/7 TOTAL DOSE), AND 15 (4/7 TOTAL DOSE) AFTER BIRTH (STUDY DURATIO) “inactive; negative”; (Species: MOUSE, Strain/Sex: BLU:HA/MALE, Route: INTRAPERITONEAL, Dose: 0, 175, 437.5 UG/KG/D ON DAYS 1 (1/7 TOTAL DOSE), 8 (2/7 TOTAL DOSE), AND 15 (4/7 TOTAL DOSE) AFTER BIRTH (STUDY DURATIO, Dose: 0, 175, 437.5 UG/KG/D ON DAYS 1 (1/7 TOTAL DOSE), 8 (2/7 TOTAL DOSE), AND 15 (4/7 TOTAL DOSE) AFTER BIRTH (STUDY DURATIO, Tumor Site: Type of Lesion: LUNG: ADENOMA) “active; positive”; (Species: MOUSE, Strain/Sex: CD-1/FEMALE, Route: INTRAPERITONEAL, Dose: 0, 175, 437.5, 875 UG/KG/D ON DAYS 1 (1/7 TOTAL DOSE), 8 (2/7 TOTAL DOSE), AND 15 (4/7 TOTAL DOSE) AFTER BIRTH (STUDY DU, Dose: 0, 175, 437.5, 875 UG/KG/D ON DAYS 1 (1/7 TOTAL DOSE), 8 (2/7 TOTAL DOSE), AND 15 (4/7 TOTAL DOSE) AFTER BIRTH (STUDY DU) “inactive; negative”; (Species: MOUSE, Strain/Sex: CD-1/MALE, Route: INTRAPERITONEAL, Dose: 0, 175, 437.5, 875 UG/KG/D ON DAYS 1 (1/7 TOTAL DOSE), 8 (2/7 TOTAL DOSE), AND 15 (4/7 TOTAL DOSE) AFTER BIRTH (STUDY DU, Dose: 0, 175, 437.5, 875 UG/KG/D ON DAYS 1 (1/7 TOTAL DOSE), 8 (2/7 TOTAL DOSE), AND 15 (4/7 TOTAL DOSE) AFTER BIRTH (STUDY DU, Tumor Site: Type of Lesion: LUNG: ADENOMA OR ADENOCARCINOMA, LIVER: TUMOR) “active; positive”.
For `O=Cc1ccc(CO)o1`, the carcinogen call (Species: MOUSE, Strain/Sex: B6C3F1/MALE, Route: INTRAPERITONEAL, Dose: 0, 0.25, 1 UMOL/G BW IN 5 µL DMSO/G BW ONCE, Dose: 0, 0.25, 1 UMOL/G BW IN 5 µL DMSO/G BW ONCE) was “inactive; negative”; the carcinogen call (Species: MOUSE, Strain/Sex: CD-1/FEMALE, Route: DERMAL, Dose: 0, 50 UMOL/0.1 ML DMSO 2/WK FOR 5 WK FOLLOWED 1 WK LATER BY 0.1 ML ACETONE 2/WK FOR 47 WK (STUDY DURATION: 52 WK)) was “inactive; negative”; the carcinogen call (Species: Mouse, Strain/Sex: B6C3F1/ Female (50/Group), Route: Oral, Dose: 0, 188, 375, 750 mg/kg by gavage in deionized water for 2 yr, Dose: 0, 188, 375, 750 mg/kg by gavage in deionized water for 2 yr, Tumor Site: Type of Lesion: Liver: hepatocellular adenoma (14/50, 26/49, 26/50, 6/50)) is “inactive; negative (ntp reports as some evidence based on increased incidences of hepatoce”; the carcinogen call (Species: Mouse, Strain/Sex: B6C3F1/ Male (50/Group), Route: Oral, Dose: 0, 188, 375, 750 mg/kg by gavage in deionized water for 2 yr, Dose: 0, 188, 375, 750 mg/kg by gavage in deionized water for 2 yr) is “inactive; negative”; the carcinogen call (Species: Rat, Strain/Sex: F344/N / Female (50/Group), Route: Oral, Dose: 0, 188, 375, 750 mg/kg by gavage in deionized water for 2 yr, Dose: 0, 188, 375, 750 mg/kg by gavage in deionized water for 2 yr) is “inactive; negative”; the carcinogen call (Species: Rat, Strain/Sex: F344/N / Male (50/Group), Route: Oral, Dose: 0, 188, 375, 750 mg/kg by gavage in deionized water for 2 yr, Dose: 0, 188, 375, 750 mg/kg by gavage in deionized water for 2 yr) was “inactive; negative”.
As to `CCN(CC)C(=O)N(C)N=O`, the carcinogen call was “active; positive” (Species: HAMSTER, Strain/Sex: SYRIAN/FEMALE, Route: SUBCUTANEOUS, Dose: 0, 7.75, 14.15, 28.3, 56.6 MG/KG IN 0.1 ML OLIVE OIL 1/WK FOR 52 WK (STUDY DURATION: LIFESPAN), Dose: 0, 7.75, 14.15, 28.3, 56.6 MG/KG IN 0.1 ML OLIVE OIL 1/WK FOR 52 WK (STUDY DURATION: LIFESPAN), Tumor Site: Type of Lesion: NASAL CAVITY: SQUAMOUS CELL CARCINOMA, SPLEEN: HEMANGIOENDOTHELIOMA, FORESTOMACH: SQUAMOUS CELL CARCINOMA, PAPILLOMA, Tumor Site: Type of Lesion: NASAL CAVITY: SQUAMOUS CELL CARCINOMA, SPLEEN: HEMANGIOENDOTHELIOMA, FORESTOMACH: SQUAMOUS CELL CARCINOMA, PAPILLOMA); “active; positive” (Species: HAMSTER, Strain/Sex: SYRIAN/MALE, Route: GAVAGE, Dose: 0, 40 MG/ML ((0.2 ML OF A SOLUTION IN ETHYL ACETATE/CORN OIL (1:2)) 1/WK FOR 25 WK (STUDY DURATION: LIFE SPAN), Tumor Site: Type of Lesion: LIVER: HEMANGIOSARCOMA, CHOLANGIOMA OR CARCINOMA, SPLEEN: HEMANGIOSARCOMA, FORESTOMACH: SQUAMOUS CELL CARCINOMA OR PAPIL, Tumor Site: Type of Lesion: LIVER: HEMANGIOSARCOMA, CHOLANGIOMA OR CARCINOMA, SPLEEN: HEMANGIOSARCOMA, FORESTOMACH: SQUAMOUS CELL CARCINOMA OR PAPIL); “active; positive” (Species: HAMSTER, Strain/Sex: SYRIAN/MALE, Route: SUBCUTANEOUS, Dose: 0, 7.75, 14.15, 28.3, 56.6 MG/KG IN 0.1 ML OLIVE OIL 1/WK FOR 52 WK (STUDY DURATION: LIFESPAN), Dose: 0, 7.75, 14.15, 28.3, 56.6 MG/KG IN 0.1 ML OLIVE OIL 1/WK FOR 52 WK (STUDY DURATION: LIFESPAN), Tumor Site: Type of Lesion: NASAL CAVITY: SQUAMOUS CELL CARCINOMA, SPLEEN: HEMANGIOENDOTHELIOMA, FORESTOMACH: SQUAMOUS CELL CARCINOMA, PAPILLOMA, Tumor Site: Type of Lesion: NASAL CAVITY: SQUAMOUS CELL CARCINOMA, SPLEEN: HEMANGIOENDOTHELIOMA, FORESTOMACH: SQUAMOUS CELL CARCINOMA, PAPILLOMA).
Regarding `CCCCCCN(C)N=O`, the carcinogen call is “active; positive” (Species: HAMSTER, Strain/Sex: SYRIAN/FEMALE, Route: GAVAGE, Dose: 0, 6.2 MG/KG 1/WK FOR 50 WK (TOTAL DOSE: 0; 2.1 MMOL) (STUDY DURATION: LIFETIME), Dose: 0, 6.2 MG/KG 1/WK FOR 50 WK (TOTAL DOSE: 0; 2.1 MMOL) (STUDY DURATION: LIFETIME), Tumor Site: Type of Lesion: LIVER: CHOLANGIOMA, LUNG: ALVEOLAR/BRONCHIAL CARCINOMA, ALVEOLAR/BRONCHIAL ADENOMA, URINARY BLADDER: TRANSITIONAL CELL C, Tumor Site: Type of Lesion: LIVER: CHOLANGIOMA, LUNG: ALVEOLAR/BRONCHIAL CARCINOMA, ALVEOLAR/BRONCHIAL ADENOMA, URINARY BLADDER: TRANSITIONAL CELL C); “active; positive” (Species: HAMSTER, Strain/Sex: SYRIAN/MALE, Route: GAVAGE, Dose: 0, 6.2 MG/KG 1/WK FOR 50 WK (TOTAL DOSE: 0; 2.1 MMOL) (STUDY DURATION: LIFETIME), Dose: 0, 6.2 MG/KG 1/WK FOR 50 WK (TOTAL DOSE: 0; 2.1 MMOL) (STUDY DURATION: LIFETIME), Tumor Site: Type of Lesion: LIVER: HEPATOCELLULAR ADENOMA, CHOLANGIOMA, HEMANGIOSARCOMA, LUNG: ALVEOLAR/ BRONCHIAL ADENOMA, NASAL MUCOSA: CARCINOMA,, Tumor Site: Type of Lesion: LIVER: HEPATOCELLULAR ADENOMA, CHOLANGIOMA, HEMANGIOSARCOMA, LUNG: ALVEOLAR/ BRONCHIAL ADENOMA, NASAL MUCOSA: CARCINOMA); “active; positive” (Species: RAT, Strain/Sex: F344/FEMALE, Route: INTRAVESICULAR, Dose: 0, 3.75 MG IN 0.4 ML ETHANOL: DEIONIZED WATER (1:3) 2/WK FOR 30 WK (TOTAL DOSE 1.6 MMOL) (STUDY DURATION: LIFESPAN), Tumor Site: Type of Lesion: BLADDER: TUMOR, LUNG: SQUAMOUS CELL CARCINOMA, UTERUS: TUMOR, Tumor Site: Type of Lesion: BLADDER: TUMOR, LUNG: SQUAMOUS CELL CARCINOMA, UTERUS: TUMOR).
Take `CCOC(=O)NO`: the carcinogen call is “active; positive” (Species: MOUSE, Strain/Sex: C57BL, Route: INTRAPERITONEAL, Dose: 1.18 MG/G 10X AT WEEKLY INTERVALS, Tumor Site: Type of Lesion: THYMUS GLAND: LYMPHOSARCOMA, LUNG: ADENOMA) and “active; positive” (Species: MOUSE, Strain/Sex: STRAIN-A/FEMALE, Route: INTRAPERITONEAL, Dose: 4000 NMOL/G, Tumor Site: Type of Lesion: LUNG: ADENOMA).
Turning to `CC1OCCN1N=O` (stereo unspecified), where the note is “Species: RAT, Strain/Sex: F344/FEMALE, Route: ORAL, Dose: 40 MG/L IN DRINKING WATER FOR 50 WK, Tumor Site: Type of Lesion: LIVER: HEPATOCELLULAR CARCINOMA, HEMANGIOENDOTHELIAL SARCOMA”, the carcinogen call was “active; positive”.

For the origin of these results see PubChem BioAssay AID1259411 (Chemical Carcinogenesis Research Information System (CCRIS), 2018).
